Test results taken from patent publication US8703483B2, “Reagents and methods for using human embryonic stem cells to evaluate toxicity of pharmaceutical compounds and other chemicals” (Wisconsin Alumni Research Foundation, priority 2006, dated 2014).

Test system: human embryonic stem cells
Assay: Metabolite profiling (LC/ESI-TOF mass spectrometry) of extracellular media of hESCs treated with alcohol
Assay type: cell-based
Source text: Binned masses were annotated in silico by querying the neutral masses in several different databases. These databases included Metlin, Biological Magnetic Resonance Data Bank (BMRB), NIST Chemistry WebBook, and the Human Metabolome Database. A mass was considered identified when its neutral mass was within 10 ppm of a known compound annotated in one of the databases listed above.

## CCO [ETOH]
ETOH 0.1, 4 D
  Fold: Unknown, mass 646.7084, RT 5.903429: −1.271 fold
  Fold: Unknown, mass 661.3846, RT 26.7452: 1.295 fold
  Fold: Unknown, mass 693.4124, RT 31.11764: 2.318 fold
  Fold: Unknown, mass 699.9225, RT 33.70266: 1.719 fold
  Fold: Unknown, mass 707.3928, RT 34.62439: 2.137 fold
  Fold: Unknown, mass 708.9387, RT 33.73428: 2.16 fold
  Fold: Unknown, mass 730.4494, RT 33.89008: 2.614 fold
  Fold: Unknown, mass 731.0954, RT 47.76987: −2.776 fold
  Fold: Unknown, mass 732.007, RT 5.918027: 1.795 fold
  Fold: Unknown, mass 751.4193, RT 35.028: 1.87 fold
  Fold: Unknown, mass 752.4629, RT 34.12668: 2.067 fold
  Fold: Unknown, mass 774.4767, RT 34.33545: 2.104 fold
  Fold: Unknown, mass 774.5055, RT 89.29926: −2.401 fold
  Fold: Unknown, mass 780.241, RT 5.886782: −1.314 fold
  Fold: Unknown, mass 796.4891, RT 34.52749: 1.927 fold
  Fold: Unknown, mass 796.9917, RT 34.60124: 1.818 fold
  Fold: Unknown, mass 820.8181, RT 4.613879: −1.47 fold
  Fold: Unknown, mass 888.8041, RT 5.259716: −1.458 fold
  Fold: Unknown, mass 921.0025, RT 5.399211: 1.678 fold
  Fold: Unknown, mass 1008.072, RT 3.705141: 1.304 fold
  Fold: Unknown, mass 1038.786, RT 5.177162: 1.678 fold
  Fold: glucuronide, mass 471.1928, RT 30.37291: 2.001 fold
ETOH 0.1, 24 H
  Fold: 3,4-Dihydroxybutyric acid, mass 129.0452, RT 16.73904: 1.502 fold
  Fold: 3-Methylindole, mass 131.0746, RT 22.22892: −1.857 fold
  Fold: (+/−)-2-(4′-Isobutylphenyl)propionitrile, mass 187.1343, RT 22.17997: 1.488 fold
  Fold: GABA analogue, mass 171.1244, RT 26.70635: 2.376 fold
  Fold: Malonylcarnitine, mass 229.0949, RT 24.52067: −2.33 fold
  Fold: Oxidized glutathione (Glutathione disulfide; GSSG; Oxiglutatione), mass 612.1509, RT 8.056862: −1.474 fold
  Fold: Unknown, mass 130.9541, RT 88.64043: 1.632 fold
  Fold: Unknown, mass 148.0052, RT 3.958833: −1.948 fold
  Fold: Unknown, mass 266.1613, RT 64.66999: −1.519 fold
  Fold: Unknown, mass 271.9364, RT 4.86619: 2.629 fold
  Fold: Unknown, mass 272.16, RT 43.99398: 1.93 fold
  Fold: Unknown, mass 285.2285, RT 63.00428: 4.003 fold
  Fold: Unknown, mass 294.0957, RT 6.160071: 1.269 fold
  Fold: Unknown, mass 296.2308, RT 71.55535: 3.545 fold
  Fold: Unknown, mass 300.1656, RT 17.18696: 1.549 fold
  Fold: Unknown, mass 337.2012, RT 8.542672: 1.402 fold
  Fold: Unknown, mass 362.2787, RT 83.72506: 2.82 fold
  Fold: Unknown, mass 379.1771, RT 20.76168: −1.723 fold
  Fold: Unknown, mass 387.0812, RT 19.97914: 1.739 fold
  Fold: Unknown, mass 388.1815, RT 17.53242: −1.449 fold
  Fold: Unknown, mass 393.1889, RT 15.90129: −1.431 fold
  Fold: Unknown, mass 396.1687, RT 6.259963: 1.718 fold
  Fold: Unknown, mass 437.2042, RT 32.18393: 24.53 fold
  Fold: Unknown, mass 462.2217, RT 22.95657: −1.986 fold
  Fold: Unknown, mass 464.225, RT 25.3287: −1.631 fold
  Fold: Unknown, mass 482.3062, RT 72.7735: −1.959 fold
  Fold: Unknown, mass 485.2069, RT 6.676207: −2.014 fold
  Fold: Unknown, mass 521.9924, RT 34.35986: −1.446 fold
  Fold: Unknown, mass 577.2825, RT 16.90923: 1.728 fold
  Fold: Unknown, mass 677.9101, RT 33.48766: −2.221 fold
  Fold: Unknown, mass 695.4286, RT 28.2045: −32.9384 fold
  Fold: Unknown, mass 707.4296, RT 56.18269: 1.49 fold
  Fold: Unknown, mass 711.8344, RT 4.826824: −3.021 fold
  Fold: Unknown, mass 765.5211, RT 69.32865: 1.873 fold
  Fold: Unknown, mass 909.5934, RT 8.502051: 2.274 fold
  Fold: Unknown, mass 913.8074, RT 5.217833: −1.861 fold
  Fold: Unknown, mass 994.0917, RT 3.646902: 1.442 fold
ETOH 0.3, 4 D
  Fold: 3,4-Dihydroxybutyric acid, mass 120.0436, RT 3.767232: 1.936 fold
  Fold: 3-(2,5-Dimethoxy phenylpropionic acid, mass 210.0922, RT 36.18938): 1.85 fold
  Fold: 3-Methylindole, mass 131.0746, RT 22.22892: 2.502 fold
  Fold: 5-Ethyl-5-(1-methyl-3-carboxypropyl)barbituric acid, mass 256.1066, RT 18.84552: −2.141 fold
  Fold: 5-Methoxytryptophan, mass 234.1253, RT 53.26863: −1.624 fold
  Fold: (+)-Eudesmin, mass 386.1724, RT 51.65871: 4.851 fold
  Fold: Amino-4methylthiobutyric acid, mass 149.0511, RT 7.479235: −1.305 fold
  Fold: Benzenemethanol, 2-(2-aminopropoxy)-3-methyl- / a-[1-(ethylamino)ethyl]-p-hydroxy-Benzyl alcohol, mass 195.124, RT 31.19917: −1.86 fold
  Fold: Homogentisic acid / Vanillic acid, mass 168.0434, RT 19.18355: 1.282 fold
  Fold: L-Histidine / 4-propionic acid, mass 155.0681, RT 5.559732: 1.638 fold
  Fold: Malonylcarnitine, mass 229.0949, RT 24.52067: −1.74 fold
  Fold: N-Methyl-2-pyrrolidinone, mass 99.0689, RT 15.48433: 1.338 fold
  Fold: Pantothenol / dimethylbutanamide;, mass 205.1304, RT 6.747279: −1.339 fold
  Fold: Phenanthrene-9,10-oxide / 9-Hydroxyphenanthrene; 9-Phenanthrol, mass 194.073, RT 5.935143: −1.4 fold
  Fold: Thiosulfate, mass 111.9839, RT 4.032816: −8.676 fold
  Fold: Unknown, mass 120.2112, RT 13.40565: 3.9 fold
  Fold: Unknown, mass 131.076, RT 14.35336: 4.05 fold
  Fold: Unknown, mass 162.0662, RT 44.88033: 1.799 fold
  Fold: Unknown, mass 201.1709, RT 19.48063: −2.979 fold
  Fold: Unknown, mass 218.0762, RT 6.62669: −1.771 fold
  Fold: Unknown, mass 229.1457, RT 55.50731: −1.533 fold
  Fold: Unknown, mass 243.11, RT 27.39631: −1.495 fold
  Fold: Unknown, mass 247.1049, RT 6.626769: −4.476 fold
  Fold: Unknown, mass 247.1408, RT 9.0276: −2.751 fold
  Fold: Unknown, mass 267.2543, RT 40.75868: −1.6481 fold
